Read-outs that look alike come from different tables or passages of the source.
What was measured:
HDAC8 = biological target: T1, HDAC8 (Homo sapiens, UniProt Q9BY41); assay: HDAC inhibitory activity, fluorescence-coupled acetylated peptide substrate assay
T1 sequence (Q9BY41 1-377): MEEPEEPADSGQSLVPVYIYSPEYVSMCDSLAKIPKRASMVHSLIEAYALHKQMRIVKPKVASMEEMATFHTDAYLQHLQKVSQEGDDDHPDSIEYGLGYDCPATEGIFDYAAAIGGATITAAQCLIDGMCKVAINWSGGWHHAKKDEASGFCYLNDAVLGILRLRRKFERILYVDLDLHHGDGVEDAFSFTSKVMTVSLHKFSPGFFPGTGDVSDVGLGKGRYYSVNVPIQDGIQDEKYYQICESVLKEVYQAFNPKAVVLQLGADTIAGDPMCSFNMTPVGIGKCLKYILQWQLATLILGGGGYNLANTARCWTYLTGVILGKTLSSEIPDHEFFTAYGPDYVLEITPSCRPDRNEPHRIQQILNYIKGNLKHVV
Protocol: (§2) The HDAC inhibitory activity was determined by fluorescence-coupled acetylated peptide substrate assay (Lys-Ac-AMC). HDAC1 protein was purchased from BPS Bioscience, and the reaction buffer system was a modified tris(hydroxymethyl)aminomethane buffer (pH 7.0). The small molecule compounds of the present invention were prepared by being dissolved in 100% DMSO. HDAC was prepared in a buffer at a certain concentration as an enzyme solution; trypsin and fluorescent group 4-amino-7-coumarin coupled-acetylated peptide (Ac-peptide) substrate were prepared in a buffer at a certain concentration as a substrate solution. The compounds were added into the reaction wells in a 384-well plate at a designed concentration of 10 μM, 1 μM, 0.5 μM, 0.1 μM, 0.05 μM, 0.01 μM, 0.005 μM, 0.001 μM, and 0.00005 μM, respectively, and then 15 μl of the HDAC solution was added into the reaction wells (15 μl of blank buffer to the control well). […] The results were analyzed by GraphPad Prism software and IC50 values were calculated according to the formula: Y=Background Data+(Top Data−Background Data)/(1+10^((Log IC50−X) a curve slope)), where Y: the inhibition rate (%) and X: the concentration of the compound.

HDAC6 = biological target: T2, HDAC6 (Homo sapiens, UniProt Q9UBN7); assay: as above; assay type: biochemical; conditions: for Selection Ratio HDAC1/6: ratio of IC50 HDAC1 to HDAC6; for Selection Ratio HDAC8/6: ratio of IC50 HDAC8 to HDAC6
T2 sequence (Q9UBN7 1-1215): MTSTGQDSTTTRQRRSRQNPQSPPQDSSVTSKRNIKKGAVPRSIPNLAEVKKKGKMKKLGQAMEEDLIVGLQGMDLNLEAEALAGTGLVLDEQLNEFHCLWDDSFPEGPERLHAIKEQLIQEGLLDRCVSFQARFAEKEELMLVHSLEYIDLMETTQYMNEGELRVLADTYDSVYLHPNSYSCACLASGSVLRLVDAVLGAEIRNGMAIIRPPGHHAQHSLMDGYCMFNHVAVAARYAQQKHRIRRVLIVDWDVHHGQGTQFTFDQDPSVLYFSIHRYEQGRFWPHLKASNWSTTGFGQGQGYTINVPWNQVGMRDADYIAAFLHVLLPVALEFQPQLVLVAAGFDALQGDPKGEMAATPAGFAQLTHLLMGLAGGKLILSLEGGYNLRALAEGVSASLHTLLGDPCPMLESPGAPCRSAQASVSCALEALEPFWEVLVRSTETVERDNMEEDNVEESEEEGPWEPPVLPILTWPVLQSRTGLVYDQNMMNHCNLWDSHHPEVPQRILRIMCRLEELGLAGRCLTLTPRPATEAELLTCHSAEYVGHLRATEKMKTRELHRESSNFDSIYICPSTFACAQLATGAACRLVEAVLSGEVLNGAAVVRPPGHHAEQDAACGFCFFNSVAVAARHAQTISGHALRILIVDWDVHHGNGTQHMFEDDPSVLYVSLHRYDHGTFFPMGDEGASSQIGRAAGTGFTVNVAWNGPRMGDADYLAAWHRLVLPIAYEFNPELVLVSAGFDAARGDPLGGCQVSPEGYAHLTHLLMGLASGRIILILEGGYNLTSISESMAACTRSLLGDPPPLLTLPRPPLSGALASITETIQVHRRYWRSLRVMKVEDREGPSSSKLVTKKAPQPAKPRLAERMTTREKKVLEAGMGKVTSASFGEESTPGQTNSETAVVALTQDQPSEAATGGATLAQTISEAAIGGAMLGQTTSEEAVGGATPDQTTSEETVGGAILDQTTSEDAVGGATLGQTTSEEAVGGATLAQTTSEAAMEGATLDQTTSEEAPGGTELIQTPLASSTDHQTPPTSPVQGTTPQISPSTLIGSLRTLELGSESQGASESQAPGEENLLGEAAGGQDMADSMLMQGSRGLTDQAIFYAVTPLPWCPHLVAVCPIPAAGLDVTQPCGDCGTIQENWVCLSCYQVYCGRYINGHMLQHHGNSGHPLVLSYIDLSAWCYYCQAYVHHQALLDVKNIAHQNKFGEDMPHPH
Protocol: as §2

HDAC1 = biological target: T3, HDAC1 (Homo sapiens, UniProt Q13547); assay: HDAC inhibitory activity, fluorescence-coupled acetylated peptide substrate assay (Lys-Ac-AMC); assay type: biochemical
T3 construct: purchased BPS Bioscience
T3 sequence (Q13547 whole entry): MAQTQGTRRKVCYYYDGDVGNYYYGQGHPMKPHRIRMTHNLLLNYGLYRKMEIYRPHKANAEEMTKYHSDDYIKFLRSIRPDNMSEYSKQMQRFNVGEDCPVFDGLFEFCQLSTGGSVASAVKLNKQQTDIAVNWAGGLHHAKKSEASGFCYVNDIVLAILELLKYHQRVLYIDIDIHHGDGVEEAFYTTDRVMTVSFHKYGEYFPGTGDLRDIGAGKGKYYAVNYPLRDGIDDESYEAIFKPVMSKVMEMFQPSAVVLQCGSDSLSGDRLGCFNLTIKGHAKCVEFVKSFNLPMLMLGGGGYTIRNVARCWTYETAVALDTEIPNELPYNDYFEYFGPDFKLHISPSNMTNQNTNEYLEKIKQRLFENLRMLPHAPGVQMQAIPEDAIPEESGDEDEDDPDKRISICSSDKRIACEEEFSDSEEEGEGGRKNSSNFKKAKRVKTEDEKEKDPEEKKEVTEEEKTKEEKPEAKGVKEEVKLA
Protocol: as §2

[1] = test system: Human lung cancer cell H460; assay: Cell proliferative activity (MTT / cck-8); assay type: cell-based; conditions: NCI-H460, incubated for 96 hours, read-out: Half-Inhibitory Concentration IC50 Human lung cancer cell H460
Protocol: (§1) Tumor cell line A375: human melanoma cell; H460: lung adenocarcinoma cell; Hela: human cervical cancer cell; HepG2: human liver cancer cell; and SKOV-3: human ovarian cancer cell, were all purchased from ATCC and cultured to logarithmic phase according to the cultivation protocol recommended by ATCC. The cells in the logarithmic phase were plated onto a 96-well plate at 2000-3000 cells/well; in the case of adherent cells, the cells should be adherent to the wall. […] After that, the cell proliferative activity was determined by MTT assay for the tumor cells representing the solid tumor model and by cck-8 assay for the tumor cells representing the hematologic tumor model.

[2] = test system: Human liver cancer cell HepG2; assay: Cell proliferative activity (MTT / cck-8); assay type: cell-based; conditions: incubated for 96 hours, read-out: Half-Inhibitory Concentration IC50 Human liver cancer cell HepG2
Protocol: as §1

[3] = test system: Human ovarian cancer cell SKOV-3; assay: Cell proliferative activity (MTT / cck-8); assay type: cell-based; conditions: SK-OV-3, incubated for 96 hours, read-out: Half-Inhibitory Concentration IC50 Human ovarian cancer cell SKOV-3
Protocol: as §1

Human melanoma A375 = assay: Cell proliferative activity (MTT / cck-8); assay type: cell-based; conditions: A-375, incubated for 96 hours, read-out: Half-Inhibitory Concentration IC50 Human melanoma A375
Protocol: as §1

[4] = test system: Human cervical cancer cell Hela; assay: Cell proliferative activity (MTT / cck-8); assay type: cell-based; conditions: incubated for 96 hours, read-out: Half-Inhibitory Concentration IC50 Human cervical cancer cell Hela
Protocol: as §1

| SMILES | IC50 (HDAC8; IC50 HDAC8, Table 2) [nM] | IC50 (HDAC8; IC50 HDAC8, Table 3) [nM] | IC50 (HDAC6; Table 2) [nM] | IC50 (HDAC6; Table 3) [nM] | Selection Ratio HDAC1/6 (HDAC6) | Selection Ratio HDAC8/6 (HDAC6) | IC50 (HDAC1; Table 2) [nM] | IC50 (HDAC1; Table 3) [nM] | IC50 [1] [nM] | IC50 [2] [nM] | IC50 [3] [nM] | IC50 (Human melanoma A375) [nM] | IC50 [4] [nM] | IC50 (HDAC8; read-out: IC50 HDAC8, Table 3) [nM] |
| --- | --- | --- | --- | --- | --- | --- | --- | --- | --- | --- | --- | --- | --- | --- |
| CCCCCN(c1ccc(OC)c(OCCCC(=O)NO)c1)c1nc(C)nc2ccccc12 [IV-4, N-hydroxy-4-(2-methoxy-5-((2-methyl-4-quinazolinyl)(pentyl)amino)phenoxy)butanamide] | > 1000 | – | 10 to 100 | – | – | – | 10 to 100 | – | > 1000 | 100 to 1000 | > 1000 | 100 to 1000 | 100 to 1000 | – |
| COc1ccc(N(C)c2nc(C)nc3ccccc23)cc1OCCCCCC(=O)NO [III-4, N-hydroxy-6-(2-methoxy-5-(methyl(2-methyl-4-quinazolinyl)amino)phenoxy)hexanamide] | > 1000 | – | 10 to 100 | – | – | – | 100 to 1000 | – | 100 to 1000 | 100 to 1000 | 100 to 1000 | 100 to 1000 | 100 to 1000 | – |
| Cc1nc(N(C)c2cccc(OCC(=O)NO)c2)c2ccccc2n1 [III-12, N-hydroxy-2-(3-(methyl(2-methyl-4-quinazolinyl)amino)phenoxy)acetamide] | > 1000 | – | 10 to 100 | – | – | – | 100 to 1000 | – | 100 to 1000 | 100 to 1000 | 100 to 1000 | > 1000 | 100 to 1000 | – |
| Cc1nc(Nc2ccc(OCCC(=O)NO)cc2)c2ccccc2n1 [II-24, N-hydroxy-3-(4-((2-methyl-4-quinazolinyl)amino)phenoxy)propionamide] | > 1000 | – | 100 to 1000 | – | – | – | > 1000 | – | > 1000 | > 1000 | > 1000 | > 1000 | > 1000 | – |
| Cc1nc(N(C)c2ccc(OCc3ccc(C(=O)NO)cc3)cc2)c2ccccc2n1 [II-5, N-hydroxy-4-((4-(methyl(2-methyl-4-quinazolinyl)amino)phenoxy)methyl)benzamide] | > 1000 | 2380 | < 10 | 6.4 | 6.9 | 371.3 | – | – | > 1000 | > 1000 | > 1000 | > 1000 | > 1000 | – |
| Cc1nc(N(C)c2ccc(OCC(=O)NO)cc2)c2ccccc2n1 [II-1, N-hydroxy-2-(4-(methyl(2-methyl-4-quinazolinyl)amino)phenoxy)acetamide] | > 1000 | – | < 10 | 8.6 | 20.0 | 137.3 | 100 to 1000 | 172 | 100 to 1000 | 100 to 1000 | 100 to 1000 | > 1000 | 100 to 1000 | 1180 |
| CCCN(c1ccc(OC)c(OCCCC(=O)NO)c1)c1nc(C)nc2ccccc12 [IV-2, N-hydroxy-4-(2-methoxy-5-((2-methyl-4-quinazolinyl)(propyl)amino)phenoxy)butanamide] | > 1000 | – | > 1000 | – | – | – | > 1000 | – | 100 to 1000 | 100 to 1000 | 100 to 1000 | 100 to 1000 | > 1000 | – |

Second part, the compound after the results:

| IC50 (HDAC8; IC50 HDAC8, Table 2) [nM] | IC50 (HDAC8; IC50 HDAC8, Table 3) [nM] | IC50 (HDAC6; Table 2) [nM] | IC50 (HDAC6; Table 3) [nM] | Selection Ratio HDAC1/6 (HDAC6) | Selection Ratio HDAC8/6 (HDAC6) | IC50 (HDAC1; Table 2) [nM] | IC50 (HDAC1; Table 3) [nM] | IC50 [1] [nM] | IC50 [2] [nM] | IC50 [3] [nM] | IC50 (Human melanoma A375) [nM] | IC50 [4] [nM] | IC50 (HDAC8; read-out: IC50 HDAC8, Table 3) [nM] | SMILES |
| --- | --- | --- | --- | --- | --- | --- | --- | --- | --- | --- | --- | --- | --- | --- |
| > 1000 | 2920 | 10 to 100 | 15 | 29.1 | 194.4 | 100 to 1000 | 437 | 100 to 1000 | 100 to 1000 | 100 to 1000 | 100 to 1000 | 100 to 1000 | – | CN(c1ccc(Oc2ccc(C(=O)NO)cn2)cc1)c1ncnc2ccccc12 [II-18, N-hydroxy-6-(4-(methyl(4-quinazolinyl)amino)phenoxy)nicotinamide] |
| > 1000 | – | 100 to 1000 | – | – | – | 100 to 1000 | – | 100 to 1000 | 10 to 100 | 10 to 100 | 100 to 1000 | 100 to 1000 | – | Cc1nc(N(C)c2cccc(OCCCC(=O)NO)c2)c2ccccc2n1 [III-13, N-hydroxy-4-(3-(methyl(2-methyl-4-quinazolinyl)amino)phenoxy)butanamide] |
| > 1000 | – | 100 to 1000 | – | – | – | 100 to 1000 | – | 100 to 1000 | 10 to 100 | 10 to 100 | 100 to 1000 | 10 to 100 | – | Cc1nc(N(C)c2cccc(OCCCCC(=O)NO)c2)c2ccccc2n1 [III-14, N-hydroxy-5-(3-(methyl(2-methyl-4-quinazolinyl)amino)phenoxy)pentanamide] |
| > 1000 | – | 10 to 100 | – | – | – | 10 to 100 | – | 100 to 1000 | 100 to 1000 | 100 to 1000 | > 1000 | 100 to 1000 | – | Cc1nc(N(C)c2cccc(OCCCCCC(=O)NO)c2)c2ccccc2n1 [III-15, N-hydroxy-6-(3-(methyl(2-methyl-4-quinazolinyl)amino)phenoxy)hexanamide] |
| > 1000 | 1260 | < 10 | 5.8 | 110.0 | 218.1 | 100 to 1000 | 638 | 100 to 1000 | 100 to 1000 | 100 to 1000 | 100 to 1000 | 100 to 1000 | – | Cc1nc(N(C)c2ccc(Oc3ccc(C(=O)NO)cn3)cc2)c2ccccc2n1 [II-7, N-hydroxy-6-(4-(methyl(2-methyl-4-quinazolinyl)amino)phenoxy)nicotinamide] |
| > 1000 | – | 10 to 100 | 34 | 8.0 | 44.4 | 100 to 1000 | 272 | > 1000 | > 1000 | 100 to 1000 | > 1000 | > 1000 | 1510 | Cc1nc(N(C)c2ccc(OCCCCCC(=O)NO)cc2)c2ccccc2n1 [II-4, N-hydroxy-6-(4-(methyl(2-methyl-4-quinazolinyl)amino)phenoxy)hexanamide] |
| > 1000 | – | 10 to 100 | 19 | 9.3 | 55.7 | 100 to 1000 | 176 | > 1000 | > 1000 | > 1000 | 100 to 1000 | > 1000 | 1060 | CN(c1ccc(OCCCCCC(=O)NO)cc1)c1ncnc2ccccc12 [II-15, N-hydroxy-6-(4-(methyl(4-quinazolinyl)amino)phenoxy)hexanamide] |

Source: US10532053B2, “Histone deacetylase inhibitor, and preparation method and use thereof” (GUANGDONG ZHONGSHENG PHARMACEUTICAL CO., LTD, priority 2015, dated 2020)
